Like-named read-outs stand apart in the source and are kept apart here.
What was measured:
CDK1-CYCLIN B = CDK1-CYCLIN B (Homo sapiens, UniProt P06493); assay: CDK protein kinase inhibition by ADP-Glo assay, CDK1-CYCLIN B; assay type: biochemical; settings: for IC50: ADP-Glo, 1000 μM ATP, read-out: CDK1-CYCLINB, IC50; for CDK2 Fold selectivity, CDK1 / CDK2 fold selectivity over CDK1: CDK2 versus CDK1; for CDK2 fold selectivity over CDK1: Table 8
How it was run: (§1)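 Human CDK/cyclin complexes with peptide substrate, 1000 μM ATP, 5 mM MgCl2 in 100 mM HEPES pH 7.5, 0.1% BSA, 0.01% Triton X-100, 1 mM DTT, 1% DMSO, incubated at 22° C. ADP formed was detected by ADP-Glo luminescence after quench.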

CDK2-CYCLIN E1 = CDK2-CYCLIN E1 (Homo sapiens, UniProt P24941); assay: CDK protein kinase inhibition by ADP-Glo assay, CDK2-CYCLIN E1; assay type: biochemical; settings: ADP-Glo, 1000 μM ATP, read-out: CDK2-CYCLINE, IC50
How it was run: as §1

CDK4-CYCLIN D1 = CDK4-CYCLIN D1 (Homo sapiens, UniProt P11802); assay: CDK protein kinase inhibition by ADP-Glo assay, CDK4-CYCLIN D1; assay type: biochemical; settings: for IC50: ADP-Glo, 1000 μM ATP, read-out: CDK4-CYCLIND1, IC50; for CDK2 Fold selectivity, CDK4 / CDK2 Fold Sensitivity, CDK4: CDK2 versus CDK4; for CDK2 Fold Sensitivity, CDK4: Table 8
Sequence of CDK4-CYCLIN D1 (P11802 whole entry): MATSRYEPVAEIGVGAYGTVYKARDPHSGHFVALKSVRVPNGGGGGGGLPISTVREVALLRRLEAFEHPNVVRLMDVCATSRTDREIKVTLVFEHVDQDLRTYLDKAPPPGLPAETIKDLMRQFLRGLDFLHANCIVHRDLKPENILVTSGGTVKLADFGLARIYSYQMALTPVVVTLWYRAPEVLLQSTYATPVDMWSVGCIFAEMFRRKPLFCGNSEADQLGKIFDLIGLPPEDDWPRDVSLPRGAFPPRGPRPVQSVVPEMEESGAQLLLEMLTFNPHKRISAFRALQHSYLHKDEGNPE
Sequence of CDK4-CYCLIN D1 (P24385 whole entry partner): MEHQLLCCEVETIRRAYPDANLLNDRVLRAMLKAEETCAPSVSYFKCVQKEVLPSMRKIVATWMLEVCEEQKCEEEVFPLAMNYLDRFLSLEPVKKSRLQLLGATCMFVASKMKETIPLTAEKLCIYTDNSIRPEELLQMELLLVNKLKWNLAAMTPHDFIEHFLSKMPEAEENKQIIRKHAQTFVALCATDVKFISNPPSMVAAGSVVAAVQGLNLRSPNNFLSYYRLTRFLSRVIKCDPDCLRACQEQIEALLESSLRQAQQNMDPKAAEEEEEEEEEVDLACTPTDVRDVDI
How it was run: as §1

CDK6-CYCLIN D3 = CDK6-CYCLIN D3 (Homo sapiens, UniProt Q00534); assay: CDK protein kinase inhibition by ADP-Glo assay, CDK6-CYCLIN D3; assay type: biochemical; settings: for IC50: ADP-Glo, 1000 μM ATP, read-out: CDK6-CYCLIND3, IC50; for CDK2 Fold selectivity, CDK6 / CDK2 Fold Sensitivity, CDK6: CDK2 versus CDK6; for CDK2 Fold Sensitivity, CDK6: Table 8
Sequence of CDK6-CYCLIN D3 (Q00534 whole entry): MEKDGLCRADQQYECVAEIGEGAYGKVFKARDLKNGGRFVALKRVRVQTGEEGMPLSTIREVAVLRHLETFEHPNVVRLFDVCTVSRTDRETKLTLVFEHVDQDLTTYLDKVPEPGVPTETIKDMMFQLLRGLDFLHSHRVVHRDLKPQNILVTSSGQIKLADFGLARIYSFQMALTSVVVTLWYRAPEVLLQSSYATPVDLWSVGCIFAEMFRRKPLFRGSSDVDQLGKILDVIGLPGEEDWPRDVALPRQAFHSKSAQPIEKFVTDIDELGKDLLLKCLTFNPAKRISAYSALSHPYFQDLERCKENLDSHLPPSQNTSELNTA
Sequence of CDK6-CYCLIN D3 (P30281 whole entry partner): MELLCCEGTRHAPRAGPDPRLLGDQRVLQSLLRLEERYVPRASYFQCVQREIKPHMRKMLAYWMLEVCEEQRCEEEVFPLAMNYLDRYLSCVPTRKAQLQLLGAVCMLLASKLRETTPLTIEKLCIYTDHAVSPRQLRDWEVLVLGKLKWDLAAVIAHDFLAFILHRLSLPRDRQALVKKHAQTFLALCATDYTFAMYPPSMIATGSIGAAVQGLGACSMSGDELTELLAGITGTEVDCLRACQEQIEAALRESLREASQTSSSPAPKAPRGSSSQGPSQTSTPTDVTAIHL
How it was run: as §1

CDK9-CYCLIN T1 = CDK9-CYCLIN T1 (Homo sapiens, UniProt P50750); assay: CDK protein kinase inhibition by ADP-Glo assay, CDK9-CYCLIN T1; assay type: biochemical; settings: for IC50: ADP-Glo, 1000 μM ATP, read-out: CDK9-CYCLINT1, IC50; for CDK2 Fold selectivity, CDK9 / CDK2 Fold Sensitivity, CDK9: CDK2 versus CDK9; for CDK2 Fold Sensitivity, CDK9: Table 8
Sequence of CDK9-CYCLIN T1 (P50750 whole entry): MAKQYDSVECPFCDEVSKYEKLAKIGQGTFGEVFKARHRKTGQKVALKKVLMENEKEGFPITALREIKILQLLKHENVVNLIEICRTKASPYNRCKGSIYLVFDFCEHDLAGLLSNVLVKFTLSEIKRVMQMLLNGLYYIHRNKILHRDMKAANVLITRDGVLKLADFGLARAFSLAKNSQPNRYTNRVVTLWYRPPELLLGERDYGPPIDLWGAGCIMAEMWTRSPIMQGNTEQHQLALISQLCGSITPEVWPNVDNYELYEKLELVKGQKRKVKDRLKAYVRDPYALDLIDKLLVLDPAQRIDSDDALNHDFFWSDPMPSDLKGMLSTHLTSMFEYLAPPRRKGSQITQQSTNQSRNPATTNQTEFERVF
Sequence of CDK9-CYCLIN T1 (O60563 whole entry partner): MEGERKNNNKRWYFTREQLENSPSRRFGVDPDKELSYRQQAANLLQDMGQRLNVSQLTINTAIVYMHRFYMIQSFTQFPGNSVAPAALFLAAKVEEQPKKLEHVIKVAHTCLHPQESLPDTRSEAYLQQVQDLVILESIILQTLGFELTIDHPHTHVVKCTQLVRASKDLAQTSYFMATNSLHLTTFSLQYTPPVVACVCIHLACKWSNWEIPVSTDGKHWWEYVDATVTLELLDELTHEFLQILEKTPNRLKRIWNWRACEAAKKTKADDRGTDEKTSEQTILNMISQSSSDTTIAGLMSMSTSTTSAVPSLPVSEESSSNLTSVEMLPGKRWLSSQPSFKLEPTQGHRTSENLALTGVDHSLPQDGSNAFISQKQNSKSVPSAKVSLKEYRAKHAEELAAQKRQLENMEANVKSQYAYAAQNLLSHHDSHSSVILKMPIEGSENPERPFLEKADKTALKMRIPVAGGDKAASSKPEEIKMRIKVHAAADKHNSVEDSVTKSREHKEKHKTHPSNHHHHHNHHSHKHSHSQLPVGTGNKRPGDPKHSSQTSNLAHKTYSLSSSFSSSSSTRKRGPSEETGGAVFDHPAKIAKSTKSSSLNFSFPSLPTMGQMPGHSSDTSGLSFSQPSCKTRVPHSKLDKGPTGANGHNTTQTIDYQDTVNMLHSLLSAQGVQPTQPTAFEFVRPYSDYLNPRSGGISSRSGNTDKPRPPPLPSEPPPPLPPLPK
How it was run: as §1

[1] = tested on: Phospho-Rb (Ser807/811) in OVCAR3 cells; assay: Phospho-Rb expression inhibition in OVCAR3 cells quantified by In Cell Western; assay type: cell-based; settings: Homo sapiens, OVCAR-3, 24 hours, read-out: OVCAR-3 pRb IC50
How it was run: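 In-cell western: after 24 h compound exposure at 37° C, fixed OVCAR3 cells co-stained for pRb Ser807/811 (800 nm channel) and total Rb (680 nm channel), imaged by LI-COR Odyssey.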

[2] = tested on: CCNE1-amplified OVCAR3 cells; assay: Cell growth inhibition of CCNE1-amplified OVCAR3 cells (CellTiter-Glo); assay type: cell-based; settings: Homo sapiens, OVCAR-3, 144 h, 6 days
How it was run: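 Growth read-out was CellTiter-Glo luminescence, taken after 10 min at room temperature at the end of a 6-day compound exposure at 37 °C. Compounds were diluted from DMSO stocks across various concentrations.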

CCNE1-normal SKOV3 cells = assay: Cell growth inhibition of CCNE1-normal SKOV3 cells (CellTiter-Glo); assay type: cell-based; settings: Homo sapiens, SK-OV-3, 144 h, 6 days
How it was run: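 Growth was measured by CellTiter-Glo luminescence after 6 days' compound exposure at 37 °C. Cells were plated one day before dosing at 1000 per well in medium with 10% FBS, and compounds were diluted from DMSO stocks.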

Sequence of CDK1-CYCLIN B (P06493 whole entry): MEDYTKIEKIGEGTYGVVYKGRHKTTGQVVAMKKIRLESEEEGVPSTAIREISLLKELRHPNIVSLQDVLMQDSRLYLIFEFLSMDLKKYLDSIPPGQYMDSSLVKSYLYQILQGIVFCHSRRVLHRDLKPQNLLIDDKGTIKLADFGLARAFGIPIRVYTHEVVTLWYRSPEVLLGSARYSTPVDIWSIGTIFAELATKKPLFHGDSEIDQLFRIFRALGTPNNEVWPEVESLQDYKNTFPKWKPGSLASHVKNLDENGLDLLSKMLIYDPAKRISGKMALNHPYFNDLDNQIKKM
Sequence of CDK1-CYCLIN B (P14635 whole entry partner): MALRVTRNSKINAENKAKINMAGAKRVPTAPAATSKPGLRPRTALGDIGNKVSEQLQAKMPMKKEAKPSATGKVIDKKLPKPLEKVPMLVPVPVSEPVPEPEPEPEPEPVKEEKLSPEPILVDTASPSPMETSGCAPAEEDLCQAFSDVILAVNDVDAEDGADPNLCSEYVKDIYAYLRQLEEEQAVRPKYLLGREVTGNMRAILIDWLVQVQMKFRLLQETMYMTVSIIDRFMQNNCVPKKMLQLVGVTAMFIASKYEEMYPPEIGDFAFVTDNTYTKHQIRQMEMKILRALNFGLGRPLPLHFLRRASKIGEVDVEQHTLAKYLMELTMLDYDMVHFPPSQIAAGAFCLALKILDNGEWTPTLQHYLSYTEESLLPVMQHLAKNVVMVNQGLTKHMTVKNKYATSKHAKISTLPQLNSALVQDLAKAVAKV

Compound	IC50 [1] [nM]	IC50 [2] [nM]	IC50 (CCNE1-normal SKOV3 cells) [nM]	IC50 (CDK1-CYCLIN B; Table 7) [nM]	CDK2 fold selectivity over CDK1 (CDK1-CYCLIN B)	IC50 (CDK2-CYCLIN E1; Table 7) [nM]	IC50 (CDK4-CYCLIN D1; Table 7) [nM]	CDK2 Fold Sensitivity, CDK4 (CDK4-CYCLIN D1)	IC50 (CDK6-CYCLIN D3; Table 7) [nM]	CDK2 Fold Sensitivity, CDK6 (CDK6-CYCLIN D3)	IC50 (CDK9-CYCLIN T1; Table 7) [nM]	CDK2 Fold Sensitivity, CDK9 (CDK9-CYCLIN T1)	other results
C[C@H]1CCCNC(=O)O[C@@H]2CC[C@@H](C2)c2cc([nH]n2)Nc2cccc(c2)O1 [Compound 157, (1^1S,1^3R,6S,Z)-6-methyl-2^1H-5,12-dioxa-3,10-diaza-2(3,5)-pyrazola-4(1,3)-benzena-1(1,3)-cyclopentanacyclododecaphan-11-one]	10 to 50	10 to 50	250 to 1250										IC50 (CDK1-CYCLIN B; Table 21): 50 to 100 nM; CDK2 Fold selectivity, CDK1 (CDK1-CYCLIN B; Table 22): E (E, <20); IC50 (CDK2-CYCLIN E1; Table 21): ≤ 10 nM; IC50 (CDK4-CYCLIN D1; Table 21): 100 to 500 nM; CDK2 Fold selectivity, CDK4 (CDK4-CYCLIN D1; Table 22): D (D, >20 and ≤50); IC50 (CDK6-CYCLIN D3; Table 21): 100 to 500 nM; CDK2 Fold selectivity, CDK6 (CDK6-CYCLIN D3; Table 22): D (D, >20 and ≤50); IC50 (CDK9-CYCLIN T1; Table 21): 100 to 500 nM; CDK2 Fold selectivity, CDK9 (CDK9-CYCLIN T1; Table 22): C (C, >50 and ≤100)
O=C1NCCCCOc2cc(cc(C(F)F)n2)Nc2cc([nH]n2)[C@H]2CC[C@H](C2)O1 [Compound 16, (1^1S,1^3R,Z)-46-(difluoromethyl)-2^1H-5,12-dioxa-3,10-diaza-4(4,2)-pyridina-2(5,3)-pyrazola-1(1,3)-cyclopentanacyclododecaphan-11-one]	10 to 50	10 to 50	> 1250	50 to 100	E (E, <20)	≤ 10	> 500	B (B, >100 and ≤500)	> 500	B (B, >100 and ≤500)	> 500	B (B, >100 and ≤500)	
O=C1NCCCCCc2cc(ccn2)Nc2cc([nH]n2)[C@H]2CC[C@H](C2)O1 [Compound 4, (1^1S,1^3R,Z)-2^1H-12-oxa-3,10-diaza-4(4,2)-pyridina-2(3,5)-pyrazola-1(1,3)-cyclopentanacyclododecaphan-11-one]	10 to 50	50 to 250	250 to 1250	100 to 500	D (D, >20 and ≤50)	≤ 10	50 to 100	E (E, <20)	50 to 100	E (E, <20)	100 to 500	D (D, >20 and ≤50)	
O=C1NC23CC(CCOc4cncc(c4)Nc4cc(n[nH]4)[C@H]4CC[C@H](C4)O1)(C2)C3 [Compound 117, (1^1S,1^3R,Z)-2^1H-5,11-dioxa-3,9-diaza-4(3,5)-pyridina-2(3,5)-pyrazola-8(1,3)-bicyclo[1.1.1]pentana-1(1,3)-cyclopentanacycloundecaphan-10-one]	≤ 2	≤ 2	50 to 250										IC50 (CDK1-CYCLIN B; Table 11): ≤ 10 nM; CDK2 Fold selectivity, CDK1 (CDK1-CYCLIN B; Table 12): E (E, <20); IC50 (CDK2-CYCLIN E1; Table 11): ≤ 10 nM; IC50 (CDK4-CYCLIN D1; Table 11): 10 to 50 nM; CDK2 Fold selectivity, CDK4 (CDK4-CYCLIN D1; Table 12): E (E, <20); IC50 (CDK6-CYCLIN D3; Table 11): 10 to 50 nM; CDK2 Fold selectivity, CDK6 (CDK6-CYCLIN D3; Table 12): E (E, <20); IC50 (CDK9-CYCLIN T1; Table 11): 10 to 50 nM; CDK2 Fold selectivity, CDK9 (CDK9-CYCLIN T1; Table 12): D (D, >20 and ≤50)
C[C@H]1NC(=O)O[C@@H]2CC[C@@H](C2)c2cc([nH]n2)Nc2ccnc(c2)COCC1(F)F [compound 165]	2 to 10	10 to 50	50 to 250										IC50 (CDK1-CYCLIN B; Table 31): 10 to 50 nM; IC50 (CDK2-CYCLIN E1; Table 31): 10 to 50 nM; IC50 (CDK4-CYCLIN D1; Table 31): 10 to 50 nM; IC50 (CDK6-CYCLIN D3; Table 31): 10 to 50 nM; IC50 (CDK9-CYCLIN T1; Table 31): 50 to 100 nM
O=C1NCCCCCc2cc(cc(C(F)F)n2)Nc2cc([nH]n2)[C@H]2CC[C@H](C2)O1 [Compound 17, (1^1S,1^3R,Z)-4^6-(difluoromethyl)-2^1H-12-oxa-3,10-diaza-4(4,2)-pyridina-2(3,5)-pyrazola-1(1,3)-cyclopentanacyclododecaphan-11-one]	2 to 10	2 to 10	250 to 1250	≤ 10	E (E, <20)	≤ 10	100 to 500	B (B, >100 and ≤500)	50 to 100	B (B, >100 and ≤500)	50 to 100	C (C, >50 and ≤100)	
O=C1NCCCCOc2cccc(c2)Nc2cc([nH]n2)[C@H]2CC[C@H](C2)O1 [Compound 105, (1^1S,1^3R,Z)-2^1H-5,12-dioxa-3,10-diaza-2(5,3)-pyrazola-4(1,3)-benzena-1(1,3)-cyclopentanacyclododecaphan-11-one]	10 to 50	50 to 250	> 1250	100 to 500	C (C, >50 and ≤100)	≤ 10	100 to 500	D (D, >20 and ≤50)	100 to 500	C (C, >50 and ≤100)	> 500	B (B, >100 and ≤500)	
O=C1NCCCCOc2cncc(c2)Nc2cc(n[nH]2)[C@H]2CC[C@H](C2)O1 [compound 104]	2 to 10	10 to 50	> 1250	10 to 50		≤ 10	50 to 100		10 to 50		100 to 500		
O=C1NC23CC(CCCc4cc(ccn4)Nc4cc(n[nH]4)[C@H]4CC[C@H](C4)O1)(C2)C3 [Compound 96, (1^1S,1^3R,Z)-2^1H-11-oxa-3,9-diaza-4(4,2)-pyridina-2(3,5)-pyrazola-8(1,3)-bicyclo[1.1.1]pentana-1(1,3)-cyclopentanacycloundecaphan-10-one]	≤ 2	2 to 10	50 to 250										IC50 (CDK1-CYCLIN B; Table 13): ≤ 10 nM; CDK2 Fold selectivity, CDK1 (CDK1-CYCLIN B; Table 14): E (E, <20); IC50 (CDK2-CYCLIN E1; Table 13): ≤ 10 nM; IC50 (CDK4-CYCLIN D1; Table 13): 50 to 100 nM; CDK2 Fold selectivity, CDK4 (CDK4-CYCLIN D1; Table 14): D (D, >20 and ≤50); IC50 (CDK6-CYCLIN D3; Table 13): 10 to 50 nM; CDK2 Fold selectivity, CDK6 (CDK6-CYCLIN D3; Table 14): E (E, <20); IC50 (CDK9-CYCLIN T1; Table 13): ≤ 10 nM; CDK2 Fold selectivity, CDK9 (CDK9-CYCLIN T1; Table 14): E (E, <20)
C[C@@H]1CCCOc2cncc(c2)Nc2cc(n[nH]2)[C@H]2CC[C@H](C2)OC(=O)N1 [Compound 120, (1^1S,1^3R,9R,Z)-9-methyl-2^1H-5,12-dioxa-3,10-diaza-4(3,5)-pyridina-2(3,5)-pyrazola-1(1,3)-cyclopentanacyclododecaphan-11-one]	2 to 10	10 to 50	> 1250										IC50 (CDK1-CYCLIN B; Table 13): 10 to 50 nM; CDK2 Fold selectivity, CDK1 (CDK1-CYCLIN B; Table 14): E (E, <20); IC50 (CDK2-CYCLIN E1; Table 13): ≤ 10 nM; IC50 (CDK4-CYCLIN D1; Table 13): 50 to 100 nM; CDK2 Fold selectivity, CDK4 (CDK4-CYCLIN D1; Table 14): C (C, >50 and ≤100); IC50 (CDK6-CYCLIN D3; Table 13): 10 to 50 nM; CDK2 Fold selectivity, CDK6 (CDK6-CYCLIN D3; Table 14): E (E, <20); IC50 (CDK9-CYCLIN T1; Table 13): 50 to 100 nM; CDK2 Fold selectivity, CDK9 (CDK9-CYCLIN T1; Table 14): C (C, >50 and ≤100)
